Entries after “also recorded” stand apart in the source; their conditions may differ. Where two headings read alike, the source gives them in different places.
Experiments:
[1] = target: T1, human serotonin 5-HT2c receptor (Homo sapiens, UniProt P28335); assay: Human 5-HT2C receptor radioligand binding assay (agonist site, [125I](±)DOI); conditions: membranes of transfected CHO cells, 0.2 nM [125I](±)DOI, 15 minutes at 37° C.
T1 construct: expressed in transfected cells; host or cells: CHO cells (membrane homogenate)
T1 sequence (P28335 33-458): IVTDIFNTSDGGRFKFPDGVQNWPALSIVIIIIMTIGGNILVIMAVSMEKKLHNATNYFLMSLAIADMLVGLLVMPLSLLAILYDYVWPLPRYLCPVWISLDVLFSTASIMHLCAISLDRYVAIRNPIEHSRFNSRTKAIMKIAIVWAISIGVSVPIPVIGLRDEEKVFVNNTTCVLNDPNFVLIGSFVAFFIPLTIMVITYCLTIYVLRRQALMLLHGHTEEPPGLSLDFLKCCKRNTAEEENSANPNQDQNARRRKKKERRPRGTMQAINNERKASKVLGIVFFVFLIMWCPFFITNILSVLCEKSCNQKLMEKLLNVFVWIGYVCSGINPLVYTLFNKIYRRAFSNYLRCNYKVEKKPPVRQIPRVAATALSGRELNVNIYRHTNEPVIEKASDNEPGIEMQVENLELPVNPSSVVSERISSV
Procedure, shortened: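 Affinity for the agonist site measured by radioligand binding in transfected CHO cells expressing the human receptor, using [125I](±)DOI.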

[2] = system: PCP-induced hyperactivity; assay: Phencyclidine (PCP)-induced hyperlocomotion in mice; assay type: in vivo; conditions: test compound ip 30 minutes before phencyclidine 2.0 mg/kg sc, FIG. 4
Procedure: (§1) (v) Assessment of Effects on Psychostimulant-Induced Hyperlocomotion in Mice
In humans, phencyclidine (PCP) is known to produce a syndrome of behavioral effects which have many characteristics in common with schizophrenia. Therefore, antagonism of PCP effects might be evidence for antipsychotic efficacy of a compound.
(§2) Male NMRI mice (5-week old, Janvier, France) or C57BL/6J mice (6-week old, Janvier, France) were group housed and allowed ad-libitum access to food and water. A 12 hour light/dark cycle was imposed with lights-on period between 0530 and 1730 hours. All testing occurred between 700 and 1300 hours. All procedures were approved by Abbott Institutional Animal Care and Use Committee (USA) or Animal Welfare Officer (Germany) and were conducted in accordance with the National Institutes of Health Guide for Care and Use of Laboratory Animals guidelines and applicable national laws in the facilities accredited by the Association for the Assessment and Accreditation of Laboratory Animal Care.
On the day of experiment, animals were brought from the animal facility into the experimental room and were allowed to acclimatize for at least 30 minutes. Animals were then placed in the test cages for a habituation period of 60 minutes. […] The analyzed data were: fine movements, ambulations and total movements (fine+ambulations). […]

[3] = target: T2, 5HT2C receptors (Homo sapiens, UniProt P28335); assay: Human 5-HT2C functional assay in 1321N1 cells (intracellular calcium, FLIPR); assay type: cell-based; set-up: expressed in transfected cells; host or cells: 1321N1 cells
T2 sequence (P28335 33-458): T1 sequence (P28335 33-458)
Procedure, shortened: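 Intracellular calcium in 1321N1 cells stably transfected with human 5-HT2C, serum-starved overnight, Fluo4 AM-loaded with 1% probenecid. Compounds at 10^−10 to 10^−5 M final, alone or with 10^−9 M serotonin; peak FLIPR response. EC50 from four-parameter logistic fit; Emax as % of serotonin effect.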

[4] = target: T3, 5HT2B receptors (Homo sapiens, UniProt P41595); assay: Human 5-HT2B functional assay in CHO-K1 cells (calcium flux, FLIPR); assay type: cell-based
T3 construct: expressed in transfected cells; host or cells: CHO-K1 cells
T3 sequence (P41595 whole entry): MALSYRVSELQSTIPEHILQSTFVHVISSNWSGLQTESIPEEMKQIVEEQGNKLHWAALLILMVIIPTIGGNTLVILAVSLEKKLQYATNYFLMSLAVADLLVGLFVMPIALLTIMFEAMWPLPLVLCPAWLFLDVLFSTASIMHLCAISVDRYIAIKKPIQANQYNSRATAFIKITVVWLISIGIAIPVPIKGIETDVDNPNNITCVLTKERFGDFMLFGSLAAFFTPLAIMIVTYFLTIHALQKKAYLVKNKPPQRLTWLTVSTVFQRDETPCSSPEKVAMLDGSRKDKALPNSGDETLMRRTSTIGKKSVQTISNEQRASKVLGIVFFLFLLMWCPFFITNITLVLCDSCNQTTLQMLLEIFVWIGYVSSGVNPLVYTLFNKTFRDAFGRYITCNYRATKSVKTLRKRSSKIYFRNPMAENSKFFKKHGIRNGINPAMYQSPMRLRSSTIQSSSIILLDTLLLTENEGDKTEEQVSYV
Procedure, shortened: (§3)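 EC50 came from a 4-parameter logistic fit, with Emax expressed relative to serotonin, of intracellular Ca2+ rises read on FLIPR at 480/530 nm, 25° C, over 3 min. Compounds ran from 10 μM in six 1:10 steps (0.2% DMSO) on serum-starved CHO-K1 transfectants pre-loaded 60 min with Ca4 dye and probenecid.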

[5] = system: AMP-induced hyperactivity; assay: d-Amphetamine-induced hyperlocomotion in mice; assay type: in vivo
Text: as §1
In both humans and experimental animals amphetamine profoundly affects motor activity, sensorimotor function, sleep, attention, aggressive and sexual behaviors, learning and memory, operant behaviors, appetite and food intake. In addition, amphetamine induces psychotic reactions in normal individuals and exacerbates symptoms of schizophrenia in patients. In experimental animals several distinct behaviors are considered to be correlates of amphetamine psychosis. For example, amphetamine-induced hyperactivity in rodents is believed to model the psychotic symptoms of schizophrenia. Reversal of these behaviors is used to predict potential antipsychotic activity of drugs in pre-clinical studies.
as §2
On the day of experiment, animals were brought from the animal facility into the experimental room and were allowed to acclimatize for at least 30 minutes. Animals were then placed in the test cages for a habituation period of 60 minutes. The animals were then injected ip with the test compound and returned to the test cage. 30 Minutes later, the mice were injected with d-amphetamine (2.0 mg/kg, AMP, Sigma, #A5880, sc) or phencyclidine (2.0 mg/kg, PCP, Sigma, #P3029, sc), and returned to the test cages for 90 minutes. […] The analyzed data were: fine movements, ambulations and total movements (fine+ambulations). […]

[6] = system: spontaneous activity; assay: Spontaneous activity in mice; assay type: in vivo; conditions: vehicle or a dose of test compound, FIG. 2b, FIG. 3b
[7] = target: T2, 5HT2C receptors; assay: Human 5-HT2C functional assay in CHO-K1 cells (calcium flux, FLIPR); assay type: cell-based; set-up: expressed in transfected cells; host or cells: CHO-K1 cells; conditions: for Emax: percentage relative to the effect of serotonin
Procedure, shortened: as §3

SMILES | Ki [1] | PCP-induced hyperactivity [2] | EC50 ([3]; 1321N1 cells stably transfected, maximum calcium response, read-out: EC50 (μM), 5-HT2c Agonist Activity) | Emax ([3]; 1321N1 cells, percentage relative to the effect of serotonin, read-out: Emax (%), 5-HT2c Agonist Activity) | EC50 [4] | AMP-induced hyperactivity ([5]; 10 and 30 mg/kg ip before d-amphetamine 2.0 mg/kg sc, FIG. 3a) | spontaneous activity (total activity counts) [6] | EC50 [7] | Emax ([7]; CHO-K1, read-out: Emax (%), 5-HT2c Agonist Activity, CHO-K1 cells) | EC50 ([4]; CHO-K1 cells over-expressing 5HT2B, calcium flux, read-out: EC50 (μM), 5-HT2B Agonist Activity) | AMP-induced hyperactivity ([5]; 1.0 and 3.0 mg/kg ip before d-amphetamine 2.0 mg/kg sc, FIG. 2a) | EC50 ([7]; CHO-K1 cells over-expressing 5HT2C, calcium flux, read-out: EC50 (μM), 5-HT2c Agonist Activity) | Emax ([7]; CHO-K1 cells, read-out: Emax (%), 5-HT2c Agonist Activity)
O=C1C[C@H]2CNCCN2c2ccccc2N1 [Example 2, (4aS)-1,2,3,4,4a,5-hexahydropyrazino[1,2-a][1,5]benzodiazepin-6(7H)-one] | 0.016 µM | attenuated PCP-induced hyperactivity significantly and in a dose dependent manner; also recorded: concentration-dependent effects of Example 2 attenuating the affect of phencyclidine (PCP) | 0.0192 µM | 90% |  |  |  |  |  |  |  |  | 
c1ccc2c(c1)OCC[C@H]1CNCCN21 [Example 169, (4aS)-2,3,4,4a,5,6-hexahydro-1H-pyrazino[2,1-d][1,5]benzoxazepine] |  |  |  |  | > 10 µM | attenuated AMP-induced hyperactivity significantly and in a dose dependent manner; also recorded: concentration-dependent effects of Example 169 attenuating the affect of d-amphetamine | no effects; also recorded: No change in spontaneous activity regardless of dose | 0.001 µM | > 120% |  |  |  | 
CCOc1ccc2c(c1)N1CCNC[C@@H]1CC(=O)N2 [Example 181, (4aS)-10-ethoxy-1,2,3,4,4a,5-hexahydropyrazino[1,2-a][1,5]benzodiazepin-6(7H)-one] |  |  |  |  |  |  | no effects; also recorded: No change in spontaneous activity regardless of dose |  |  | > 10 µM | attenuated AMP-induced hyperactivity significantly and in a dose dependent manner; also recorded: concentration-dependent effects of Example 181 attenuating the affect of d-amphetamine | 0.02 µM | > 120%
